Results from patent publication US10774068B2, “Composition and methods for inhibiting mammalian sterile 20-like kinase 1” (The Scripps Research Institute, priority 2015, dated 2020).
pIC50: −log10 of the molar value.

The molecules below were run against MST1 (Homo sapiens (Human), UniProt Q13043) (assay: MST1 biochemical LanthaScreen Eu Kinase Binding Assay). Details: read-out: Kinase Binding assay-MST1 IC50.
Procedure: (§1) MST1 and MST2 biochemical LanthaScreen Eu Kinase Binding Assay was based on the binding and displacement of kinase tracer to the kinase of interest. Compounds in 1000×DMSO stock solution was dispensed using automated dispensing system (Labcyte) to 384 well Corning Microplate at 15 nL, 5 uL of Kinase buffer A was added to each well. Plates were shaken and incubated for 1 min to ensure well dissolution of compounds.

Sequence of MST1 (Q13043 whole entry): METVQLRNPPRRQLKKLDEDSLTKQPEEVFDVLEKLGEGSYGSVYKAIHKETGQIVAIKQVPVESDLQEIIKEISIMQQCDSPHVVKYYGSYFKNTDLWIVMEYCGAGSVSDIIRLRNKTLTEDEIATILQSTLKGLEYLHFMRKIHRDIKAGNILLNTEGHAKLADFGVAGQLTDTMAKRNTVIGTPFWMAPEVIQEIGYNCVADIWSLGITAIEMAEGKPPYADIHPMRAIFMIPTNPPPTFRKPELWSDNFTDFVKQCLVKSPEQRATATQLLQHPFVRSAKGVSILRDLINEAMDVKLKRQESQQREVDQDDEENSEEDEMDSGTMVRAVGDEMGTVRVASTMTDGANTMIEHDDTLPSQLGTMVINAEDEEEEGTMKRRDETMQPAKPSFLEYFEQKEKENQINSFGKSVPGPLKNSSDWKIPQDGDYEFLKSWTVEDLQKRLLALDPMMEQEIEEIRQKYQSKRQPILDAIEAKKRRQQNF

First: CCOc1cc2ncc(C#N)c(Nc3ccc(OCc4ccccn4)c(Cl)c3)c2cc1NC(C)=O [Example 85]
Second: CCOc1cc2ncc(C#N)c(Nc3ccc(OCc4ccccn4)c(Cl)c3)c2cc1NC(=O)CC [Example 101]
The pIC50 of the first is higher: > 7.00 for the first, 5.00 to 6.00 for the second. The first is the more potent here.

`CCOc1cc2ncc(C#N)c(Nc3cccc(Cl)c3)c2cc1NC(=O)CCCN(C)C` [Example 137, N-(4-(3-chlorophenylamino)-3-cyano-7-ethoxyquinolin-6-yl)-4-(dimethylamino)butanamide] and `CCOc1cc2ncc(C#N)c(Nc3ccc(OC)c(Cl)c3)c2cc1NC(=O)CCCN(C)C` [Example 138] fall in the same range of pIC50: 5.00 to 6.00 for the first, 5.00 to 6.00 for the second.

Compared with `CCOc1cc2ncnc(Nc3ccc(OCc4ncccc4C)cc3Cl)c2cc1NC(=O)CCCN(C)C` [Example 146, N-(4-(2-chloro-4-((3-methylpyridin-2-yl)methoxy)phenylamino)-7-ethoxyquinazolin-6-yl)-4-(dimethylamino)butanamide], `CCOc1cc2ncc(C#N)c(Nc3ccc(OCc4cccnn4)c(Cl)c3)c2cc1NC(=O)CCCN(C)C` [Example 68] is higher in pIC50: 5.00 to 6.00 for the first, 6.00 to 7.00 for the second.

`CCOc1cc2ncc(C#N)c(Nc3cccc(S(C)(=O)=O)c3)c2cc1NC(C)=O` [Example 134] and `CCOc1cc2ncc(C#N)c(Nc3cccc(C)c3)c2cc1NC(C)=O` [Example 130] fall in the same range of pIC50: 5.00 to 6.00 for the first, 5.00 to 6.00 for the second.

`CCOc1cc2ncc(C#N)c(Nc3ccc(OC)cc3)c2cc1NC(C)=O` [Example 121] and `CCOc1cc2ncc(C#N)c(Nc3ccc(C)cc3)c2cc1NC(C)=O` [Example 120] fall in the same range of pIC50: 6.00 to 7.00 for the first, 6.00 to 7.00 for the second.

First: CCOc1cc2ncc(C#N)c(Nc3ccc(OCc4cn5cccc(C)c5n4)c(Cl)c3)c2cc1NC(=O)CCCN(C)C [Example 41]
Second: CCOc1cc2ncc(C#N)c(Nc3ccc(OCc4cccnc4)c(Cl)c3)c2cc1NC(=O)CCCN(C)C [Example 49]
The pIC50 of the first is higher: > 7.00 for the first, 5.00 to 6.00 for the second. The first is the more potent here.

First: CCOc1cc2ncc(C#N)c(Nc3ccc(OCc4ccccc4)c(Cl)c3)c2cc1NC(=O)CCCN(C)C [Example 46]
Second: CCOc1cc2ncc(C#N)c(Nc3ccc(OCc4ccncc4)c(Cl)c3)c2cc1NC(=O)CCCN(C)C [Example 50]
The pIC50 of the first is higher: 6.00 to 7.00 for the first, 5.00 to 6.00 for the second.

First: CCOc1cc2ncc(C#N)c(Nc3ccccc3F)c2cc1NC(C)=O [Example 118]
Second: CCOc1cc2ncc(C#N)c(Nc3ccccc3)c2cc1NC(C)=O [Example 115, N-(3-cyano-7-ethoxy-4-(phenylamino)quinolin-6-yl)acetamide]
The pIC50 of the first is higher: 6.00 to 7.00 for the first, 5.00 to 6.00 for the second.

`CCOc1cc2ncc(C#N)c(Nc3ccc(NC(C)(C)c4ccccn4)c(Cl)c3)c2cc1NC(=O)CCCN(C)C` [Example 113] and `CCOc1cc2ncc(C#N)c(Nc3ccc(NC(C)c4ccccn4)c(Cl)c3)c2cc1NC(=O)CCCN(C)C` (centres unmarked) [Example 112] fall in the same range of pIC50: 5.00 to 6.00 for the first, 5.00 to 6.00 for the second.

Compared with `CCOc1cc2ncc(C#N)c(Nc3ccc(OCc4ccc5c(n4)OCCC5)c(Cl)c3)c2cc1NC(=O)CCCN(C)C` [Example 59], `CCOc1cc2ncc(C#N)c(Nc3ccc(OCc4cocn4)c(Cl)c3)c2cc1NC(=O)CCCN(C)C` [Example 69] is higher in pIC50: 5.00 to 6.00 for the first, 6.00 to 7.00 for the second.

First: CCOc1cc2ncc(C#N)c(Nc3ccc(OCc4ccccn4)c(Cl)c3)c2cc1NC(=O)CCN(C)C [Example 96]
Second: CCOc1cc2ncc(C#N)c(Nc3ccc(OCc4ccccn4)c(C)c3)c2cc1NC(=O)CCCN(C)C [Example 48]
The pIC50 of the first is higher: > 7.00 for the first, 6.00 to 7.00 for the second. The first is the more potent here.

`CCOc1cc2ncc(C#N)c(Nc3ccc(OCCc4c(C)noc4C)c(Cl)c3)c2cc1NC(=O)CCCN(C)C` [Example 66] and `CCOc1cc2ncc(C#N)c(Nc3ccc(OCc4nc(C(C)C)no4)c(Cl)c3)c2cc1NC(=O)CCCN(C)C` [Example 70] fall in the same range of pIC50: 6.00 to 7.00 for the first, 6.00 to 7.00 for the second.

`CCOc1cc2ncc(C#N)c(Nc3ccc(OCc4ccc(OC)cn4)c(Cl)c3)c2cc1NC(=O)CCCN(C)C` [Example 56] and `CCOc1ccc(COc2ccc(Nc3c(C#N)cnc4cc(OCC)c(NC(=O)CCCN(C)C)cc34)cc2Cl)nc1` [Example 57] fall in the same range of pIC50: 6.00 to 7.00 for the first, 6.00 to 7.00 for the second.

`CCOc1cc2ncc(C#N)c(Nc3ccc(OCc4ccc(C(=O)OC)cn4)c(Cl)c3)c2cc1NC(=O)CCCN(C)C` [Example 58] and `CCOc1cc2ncc(C#N)c(Nc3ccc(OCc4ccc(C(F)(F)F)cn4)c(Cl)c3)c2cc1NC(=O)CCCN(C)C` [Example 53] fall in the same range of pIC50: 6.00 to 7.00 for the first, 6.00 to 7.00 for the second.

First: CCOc1cc2ncc(C#N)c(N(C)c3ccccc3)c2cc1NC(C)=O [Example 116]
Second: CCOc1cc2ncc(C#N)c(Nc3cccc(OC)c3)c2cc1NC(C)=O [Example 131]
The pIC50 of the first is lower: 5.00 to 6.00 for the first, 6.00 to 7.00 for the second.

First: CCOc1cc2ncc(C#N)c(Nc3ccc(OCc4cccnc4)cc3)c2cc1NC(=O)CCCN(C)C [Example 51]
Second: CCOc1cc2ncc(C#N)c(Nc3ccc(OCc4ccccn4)cc3)c2cc1NC(=O)CCCN(C)C [Example 47]
The pIC50 of the first is lower: 5.00 to 6.00 for the first, 6.00 to 7.00 for the second.

First: CCOc1cc2ncc(C#N)c(Nc3ccc(NCc4ccccn4)c(Cl)c3)c2cc1NC(=O)CCCN(C)C [Example 111, N-(4-(3-chloro-4-(pyridin-2-ylmethylamino)phenylamino)-3-cyano-7-ethoxyquinolin-6-yl)-4-(dimethylamino)butanamide]
Second: CCOc1cc2ncc(C#N)c(Nc3ccc(NC(C)c4ccccc4)c(Cl)c3)c2cc1NC(=O)CCCN(C)C (centres unmarked) [Example 114]
The pIC50 of the first is higher: 6.00 to 7.00 for the first, 5.00 to 6.00 for the second. The first is the more potent here.

`CCOc1cc2ncc(C#N)c(Nc3ccc(OCc4cccc(C(F)(F)F)n4)c(Cl)c3)c2cc1NC(=O)CCCN(C)C` [Example 54] and `CCOc1cc2ncc(C#N)c(Nc3ccc(OCc4cc(C(F)(F)F)ccn4)c(Cl)c3)c2cc1NC(=O)CCCN(C)C` [Example 55] fall in the same range of pIC50: 6.00 to 7.00 for the first, 6.00 to 7.00 for the second.

`CCOc1cc2ncc(C#N)c(Nc3ccc(OCc4cc5ncccc5o4)c(Cl)c3)c2cc1NC(=O)CCCN(C)C` [Example 71] and `CCOc1cc2ncc(C#N)c(Nc3ccc(OCc4cnc5cccnc5c4)c(Cl)c3)c2cc1NC(=O)CCCN(C)C` [Example 63] fall in the same range of pIC50: 6.00 to 7.00 for the first, 6.00 to 7.00 for the second.

Compared with `CCOc1cc2ncc(C#N)c(Nc3ccc(OCCCn4cncn4)c(Cl)c3)c2cc1NC(=O)CCCN(C)C` [Example 61], `CCOc1cc2ncc(C#N)c(Nc3ccc(OCCn4ccc(C)n4)c(Cl)c3)c2cc1NC(=O)CCCN(C)C` [Example 64] is higher in pIC50: 5.00 to 6.00 for the first, 6.00 to 7.00 for the second. The second is the more potent here.

`CCOc1cc2ncc(C#N)c(Nc3ccc(C#N)cc3)c2cc1NC(C)=O` [Example 129] and `CCOc1cc2ncc(C#N)c(Nc3ccc(Cl)cc3)c2cc1NC(C)=O` [Example 122] fall in the same range of pIC50: 5.00 to 6.00 for the first, 5.00 to 6.00 for the second.

`CCOc1cc2ncc(C#N)c(Nc3ccc(OCc4cnc(C)cn4)c(Cl)c3)c2cc1NC(=O)CCCN(C)C` [Example 60] and `CCOc1cc2ncc(C#N)c(Nc3ccc(OCc4cc(-c5ccc(C)cc5)on4)c(Cl)c3)c2cc1NC(=O)CCCN(C)C` [Example 73] fall in the same range of pIC50: 6.00 to 7.00 for the first, 6.00 to 7.00 for the second.

`CCOc1cc2ncc(C#N)c(Nc3ccc(NC(=O)c4ccccc4)c(Cl)c3)c2cc1NC(=O)CCCN(C)C` [Example 109, N-(2-chloro-4-(3-cyano-6-(4-(dimethylamino)butanamido)-7-ethoxyquinolin-4-ylamino)phenyl)benzamide] and `CCOc1cc2ncc(C#N)c(Nc3ccc(OCc4ncccc4-c4ccccc4)c(Cl)c3)c2cc1NC(=O)CCCN(C)C` [Example 72] fall in the same range of pIC50: 6.00 to 7.00 for the first, 6.00 to 7.00 for the second.

First: CCOc1cc2ncc(C#N)c(Nc3ccc(OCc4ccccn4)c(Cl)c3)c2cc1NC(=O)CCCN1CCN(C)CC1 [Example 98]
Second: CCOc1cc2ncc(C#N)c(Nc3ccc(OC)c(Cl)c3)c2cc1NC(C)=O [Example 136]
The pIC50 of the first is higher: > 7.00 for the first, 6.00 to 7.00 for the second. The first is the more potent here.

These molecules were tested against MST2 (Homo sapiens (Human), UniProt Q13188) (assay: MST2 biochemical LanthaScreen Eu Kinase Binding Assay). Details: not given.
Procedure: as §1

Sequence of MST2 (Q13188 whole entry): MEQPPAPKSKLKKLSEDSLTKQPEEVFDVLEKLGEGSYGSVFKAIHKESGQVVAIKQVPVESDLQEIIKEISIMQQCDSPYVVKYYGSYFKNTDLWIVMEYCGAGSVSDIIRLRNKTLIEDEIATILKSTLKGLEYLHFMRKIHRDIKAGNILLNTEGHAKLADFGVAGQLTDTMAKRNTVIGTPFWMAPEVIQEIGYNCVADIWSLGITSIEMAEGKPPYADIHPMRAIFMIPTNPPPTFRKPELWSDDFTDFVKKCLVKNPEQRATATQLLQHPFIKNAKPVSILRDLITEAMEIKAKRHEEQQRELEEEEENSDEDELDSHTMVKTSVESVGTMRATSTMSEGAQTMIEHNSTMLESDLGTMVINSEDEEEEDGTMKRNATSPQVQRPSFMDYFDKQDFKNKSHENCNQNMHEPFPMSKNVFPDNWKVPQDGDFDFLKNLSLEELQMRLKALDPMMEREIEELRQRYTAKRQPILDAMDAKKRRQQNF

Work on `CCOc1cc2ncc(C#N)c(Nc3ccc(OCc4ccccn4)c(Cl)c3)c2cc1NC(C)=O` [Example 85] yielded a pIC50 of 5.00 to 6.00.

Same assay, conditions: read-out: Kinase Binding assay-MST2 IC50

With `CCOc1cc2ncc(C#N)c(Nc3ccc(OCc4cn5cccc(C)c5n4)c(Cl)c3)c2cc1NC(=O)CCCN(C)C` [Example 41] the pIC50 was > 7.00.
